Results on seven compounds are retold here after patent US5298488A, “CM-chitin derivatives and use thereof” (Fuji Photo Film Co., Ltd., priority 1990, dated 1994).

Assay [1] deals with vitronectin. Put plainly: Cell adhesion-inhibitory test against vitronectin (competitive assay, number of adhered cells). The format is cell-based, human. As to conditions: endothelium cells of blood vessel, 37° C., one hour, 0 control 249. The text has this:
(§1) A method for determining the activity of the CM-chitin derivatives of the present invention for inhibiting adhesion of cells to fibronectin or vitronectin will be described below. The competitive assays used herein have widely been employed tin the field of biochemistry and are detailed in, for instance, "Method in Enzymology", 1981, 82, pp. 803-831; and J. P. KOKAI Nos. Hei 1-309682 and Hei 2-174797.
(§2) Commercially available fibroneotin (derived from human; purchased from Seikaqaku Kogyo K. K.) and vitronectin (derived from human; purchased from Funakoshi Co., Ltd.) each was diluted to 1.0 μ1/ml and 2.0 μ1/ml with PBS (NaH2 PO4 0.005 M+NaCl 0.07 M), 0.5 ml of the resulting diluted solution was dispensed into a plastic plate having 24 wells and incubated at 37° C. overnight to perform coating of the plate. Then bovine serum albumin (BSA 1%) was added followed by incubation at 37° C. for one hour for inhibiting the occurrence of nonspecific adsorption, then washing with PBS in the usual manner and sufficient drainage to give an adsorption plate.
[…] Each of the solutions (0.25 ml) was dispensed to the plate prepared above, 0.25 ml of a suspension of endothelium cells of blood vessel (4×10^6 cells/ml) was added to the plate and incubated at 37° C. for one hour to thus cause cohesion of the cells. The plate was washed three times with DMEM medium to remove non-adhesive cells, then the adhered cells were peeled off with a 0.025% EDTA trypsin solution and stained with a 2% Trypan Blue solution to determine the number of the adhered cells.

Assay [2] has as its system fibronectin. Nature of the assay: Cell adhesion-inhibitory test against fibronectin (competitive assay, number of adhered cells). In kind it is cell-based, human. As to conditions: endothelium cells of blood vessel, 37° C., one hour, 0 mg/ml control 160.
Excerpt: as §1, §2
A CM-chitin derivative obtained through lyophilization was diluted with Dulbecco's Modified Eagles Medium (hereunder referred to as "DMEM") to give solutions of the CM-chitin derivative having concentrations of 0, 0.25, 0.5, 1.0 and 1.5 mg/ml respectively. Each of the solutions (0.25 ml) was dispensed to the plate prepared above, 0.25 ml of a suspension of endothelium cells of blood vessel (4×10^6 cells/ml) was added to the plate and incubated at 37° C. for one hour to thus cause cohesion of the cells. The plate was washed three times with DMEM medium to remove non-adhesive cells, then the adhered cells were peeled off with a 0.025% EDTA trypsin solution and stained with a 2% Trypan Blue solution to determine the number of the adhered cells.

Assay [3] concerns human plasma rich in platelet. Nature of the assay: Platelet coagulation-inhibitory activity in vitro, transmittance by aggregometer. In kind it is cell-based. The settings on record: 37° C., 3 minutes preincubation; for Platelet Coagulation-Inhibitory Action IC50, ADP Stimulation: ADP stimulation (50 μM ADP solution); for Platelet Coagulation-Inhibitory Action IC50, Collagen Stimulation: collagen stimulation (200 μg/ml collagen solution). The protocol:
The platelet coagulation-inhibitory effect of the CM-chitin derivative of the present invention was assayed, in vitro, using human plasma rich in platelet. The experimental method will be described below.
To fresh human blood, there was added 1/9 volume of a 3.8% sodium citrate solution, the resulting mixture was centrifuged (1000 rpm; for 10 minutes) and the upper layer was separated as a plasma rich in platelet. A lyophilized CM-chitin derivative was dissolved in physiological saline to give a plurality of solutions having various concentrations ranging from 0 to 1.5 mg/ml. Each of the solutions (25 μ1) was added to 200 µl of the plasma, incubated at 37° C. for 3 minutes, then a 50 μM of ADP (adenosine diphosphate) solution or a 200 μg/ml collagen solution was added to determine the extent of coagulation in terms of transmittance determined by an aggregometer.
Rate of Coagulation Inhibition=(1-T/T .)×100%
T . : transmittance observed when a salt of CM-chitin derivative was not added.
T : transmittance observed when a salt of CM-chitin derivative was added.

[4] abbreviates: concentration 10 mg/ml (so in the source).
The mark [5] stands for this setting: concentration 50 mg/ml (so in the source).
Setting [6] is: concentration 100 mg/ml (so in the source).
The mark [7] stands for this setting: concentration 300 mg/ml (so in the source).

No end group written: not given here. succinylated CM‑chitin = succinylated carboxymethyl-chitin (CM-chitin), conjugated to the peptide; sulfated CM‑chitin = sulfated carboxymethyl-chitin (CM-chitin), conjugated to the peptide; succinylated CM‑Chitin = succinylated CM-chitin; CM‑Chitin = carboxymethyl chitin

“Succinylated CM-Chitin-(Arg-Gly-Asp)5 ({succinylated CM‑Chitin}-RGDRGDRGDRGDRGD) [CM--chitin derivative-12]”: the “Cell Adhesion-Inhibitory effect Against Vitronectin (number of adhered cells)” value came to 150 cell/well in assay [1] (setting [4]), 101 cell/well in assay [1] (setting [5]), 80 cell/well in assay [1] (setting [6]) and 59 cell/well in assay [1] (setting [7]). For the same compound, the “Cell Adhesion-Inhibitory effect Against Fibronectin (number of adhered cells)” value in assay [2] (concentration 0.5 mg/ml) was found to be 101 cell/well; in assay [2] (concentration 1.0 mg/ml), 89 cell/well; in assay [2] (concentration 1.5 mg/ml), 77 cell/well; in assay [2] (concentration .25 mg/ml) it was 125 cell/well. In addition, the “Platelet Coagulation-Inhibitory Action IC50, ADP Stimulation” value in assay [3] was found to be 30 µg/mL. Moreover, in assay [3], the “Platelet Coagulation-Inhibitory Action IC50, Collagen Stimulation” value came to 8 µg/mL.
For the compound “Maleyl Derivative of CM-Chitin Arg-Gly-Asp-Ser (RGDS; also: conjugated to maleyl CM-chitin) [CM--chitin derivative-3]”, the “Cell Adhesion-Inhibitory effect Against Vitronectin (number of adhered cells)” value in assay [1] (setting [4]) worked out at 141 cell/well; in assay [1] (setting [5]), 87 cell/well; in assay [1] (setting [6]), 69 cell/well; in assay [1] (setting [7]), 49 cell/well. The “Cell Adhesion-Inhibitory effect Against Fibronectin (number of adhered cells)” value in assay [2] (concentration 0.5 mg/ml) amounted to 100 cell/well; in assay [2] (concentration 1.0 mg/ml), 77 cell/well; in assay [2] (concentration 1.5 mg/ml), 55 cell/well; in assay [2] (concentration .25 mg/ml) it was 123 cell/well. Further, in assay [3], the “Platelet Coagulation-Inhibitory Action IC50, ADP Stimulation” value came out at 21 µg/mL. In addition, the “Platelet Coagulation-Inhibitory Action IC50, Collagen Stimulation” value in assay [3] stood at 7 µg/mL.
In the case of “Succinylated CM-Chitin Gly-Arg-Gly-Asp-Ser (GRGDS; also: conjugated to succinylated CM-chitin) [CM--chitin derivative-8]”, the “Cell Adhesion-Inhibitory effect Against Vitronectin (number of adhered cells)” value in assay [1] (setting [4]) amounted to 130 cell/well; in assay [1] (setting [5]), 95 cell/well; in assay [1] (setting [6]) it was 69 cell/well; in assay [1] (setting [7]), 47 cell/well. Moreover, the “Cell Adhesion-Inhibitory effect Against Fibronectin (number of adhered cells)” value is reported as 113 cell/well in assay [2] (concentration 0.5 mg/ml), 80 cell/well in assay [2] (concentration 1.0 mg/ml), 59 cell/well in assay [2] (concentration 1.5 mg/ml) and 130 cell/well in assay [2] (concentration .25 mg/ml). Moreover, in assay [3], the “Platelet Coagulation-Inhibitory Action IC50, ADP Stimulation” value came out at 24 µg/mL. The “Platelet Coagulation-Inhibitory Action IC50, Collagen Stimulation” value in assay [3] came out at 14 µg/mL.
On to “CM-Chitin-Arg-Gly-Asp-Ser ({CM‑Chitin}-RGDS) [CM--chitin derivative-1, rate of introduction of Arg-Gly-Asp-Ser fragments about 10%]”, for which the “Cell Adhesion-Inhibitory effect Against Vitronectin (number of adhered cells)” value in assay [1] (setting [4]) is on record as 148 cell/well; in assay [1] (setting [5]), 89 cell/well; in assay [1] (setting [6]), 72 cell/well; in assay [1] (setting [7]) it was 41 cell/well. In addition, the “Cell Adhesion-Inhibitory effect Against Fibronectin (number of adhered cells)” value in assay [2] (concentration 0.5 mg/ml) was determined as 106 cell/well; in assay [2] (concentration 1.0 mg/ml), 79 cell/well; in assay [2] (concentration 1.5 mg/ml), 69 cell/well; in assay [2] (concentration .25 mg/ml), 131 cell/well. Further, the “Platelet Coagulation-Inhibitory Action IC50, ADP Stimulation” value in assay [3] came out at 15 µg/mL. The “Platelet Coagulation-Inhibitory Action IC50, Collagen Stimulation” value in assay [3] came to 10 µg/mL.
As for “Succinylated CM-Chitin-Arg-Gly-Asp-Ser ({succinylated CM‑chitin}-RGDS) [CM--chitin derivative-2]”, the “Cell Adhesion-Inhibitory effect Against Vitronectin (number of adhered cells)” value amounted to 137 cell/well in assay [1] (setting [4]), 96 cell/well in assay [1] (setting [5]), 78 cell/well in assay [1] (setting [6]) and 59 cell/well in assay [1] (setting [7]). Also, the “Cell Adhesion-Inhibitory effect Against Fibronectin (number of adhered cells)” value was 99 cell/well in assay [2] (concentration 0.5 mg/ml), 82 cell/well in assay [2] (concentration 1.0 mg/ml), 75 cell/well in assay [2] (concentration 1.5 mg/ml) and 135 cell/well in assay [2] (concentration .25 mg/ml). Further, the “Platelet Coagulation-Inhibitory Action IC50, ADP Stimulation” value in assay [3] turned out to be 18 µg/mL. For the same compound, in assay [3], the “Platelet Coagulation-Inhibitory Action IC50, Collagen Stimulation” value was 10 µg/mL.
Turning to `N=C(N)NCCC[C@H](N)C(=O)NCC(=O)N[C@@H](CC(=O)O)C(=O)O` [ArgGlyAsp, H--(Arg--Gly--Asp)--OH, reference compound], the “Cell Adhesion-Inhibitory effect Against Vitronectin (number of adhered cells)” value in assay [1] (setting [4]) is 171 cell/well; in assay [1] (setting [5]), 132 cell/well; in assay [1] (setting [6]) it was 104 cell/well; in assay [1] (setting [7]), 73 cell/well. Further, the “Cell Adhesion-Inhibitory effect Against Fibronectin (number of adhered cells)” value turned out to be 162 cell/well in assay [2] (concentration 0.5 mg/ml), 141 cell/well in assay [2] (concentration 1.0 mg/ml), 83 cell/well in assay [2] (concentration 1.5 mg/ml) and 157 cell/well in assay [2] (concentration .25 mg/ml). In addition, the “Platelet Coagulation-Inhibitory Action IC50, ADP Stimulation” value in assay [3] was 27 µg/mL. In addition, the “Platelet Coagulation-Inhibitory Action IC50, Collagen Stimulation” value in assay [3] turned out to be 22 µg/mL.
Take “Sulfated CM-Chitin-Arg-Gly-Asp-Ser ({sulfated CM‑chitin}-RGDS) [CM--chitin derivative-13]”: the “Cell Adhesion-Inhibitory effect Against Vitronectin (number of adhered cells)” value in assay [1] (setting [4]) was found to be 103 cell/well; in assay [1] (setting [5]), 70 cell/well; in assay [1] (setting [6]) it was 47 cell/well; in assay [1] (setting [7]), 31 cell/well. Moreover, the “Cell Adhesion-Inhibitory effect Against Fibronectin (number of adhered cells)” value came out at 77 cell/well in assay [2] (concentration 0.5 mg/ml), 57 cell/well in assay [2] (concentration 1.0 mg/ml), 33 cell/well in assay [2] (concentration 1.5 mg/ml) and 97 cell/well in assay [2] (concentration .25 mg/ml). Further, the “Platelet Coagulation-Inhibitory Action IC50, ADP Stimulation” value in assay [3] is 17 µg/mL. Also, the “Platelet Coagulation-Inhibitory Action IC50, Collagen Stimulation” value in assay [3] came out at 7 µg/mL.
